Values of other authors, collected in patent publication US6743953B2, “Process for the preparation of xanthophyll crystals” (Kancor Flavours & Extracts Ltd., priority 2002, dated 2004).
Where two headings read alike, the source gives them in different places.

Tests used:
[1] = not given; remark: listed apart in the source

Stability of Lutein in Solvent (solvent Acetone): Good
Stability of Lutein in Solvent (solvent Benzene): Good
Stability of Lutein in Solvent (solvent Chloroform): Good
Stability of Lutein in Solvent (solvent Cyclohexanone): Poor
Stability of Lutein in Solvent (solvent Dichloromethane): Good
Stability of Lutein in Solvent (solvent Ethyl Acetate): Good
Stability of Lutein in Solvent (solvent Hexane): Good
Stability of Lutein in Solvent (solvent Tetrahydrofuran): Good
Stability of Lutein in Solvent (solvent Toluene): Good
Solubility of Lutein in Solvent ([1]; solvent Acetone): 800 Mg/litre
Solubility of Lutein in Solvent ([1]; solvent Benzene): 600 Mg/litre
Solubility of Lutein in Solvent ([1]; solvent Chloroform): 6000 Mg/litre
Solubility of Lutein in Solvent ([1]; solvent Cyclohexanone): 4000 Mg/litre
Solubility of Lutein in Solvent ([1]; solvent Dichloromethane): 800 Mg/litre
Solubility of Lutein in Solvent ([1]; solvent Ethyl Acetate): 800 Mg/litre
Solubility of Lutein in Solvent ([1]; solvent Hexane): 20 Mg/litre
Solubility of Lutein in Solvent ([1]; solvent Tetrahydrofuran): 8000 Mg/litre
Solubility of Lutein in Solvent ([1]; solvent Toluene): 400 Mg/litre
SMILES: CC1=C[C@H](O)CC(C)(C)[C@H]1/C=C/C(C)=C/C=C/C(C)=C/C=C/C=C(C)/C=C/C=C(C)/C=C/C1=C(C)C[C@@H](O)CC1(C)C [Lutein, (3R,3′R,6′R)-β,ε-carotene-3,3′-diol]
